Data: patent US20030203963A1, “Antimicrobial agent” (priority 2001, published 2003)

Legend:
Ps. fluorescens 3756 = assay: Chicken soup trial at 20° C.; type: cell-based, Pseudomonas fluorescens
Excerpt: (§1) A local supermarket brand of cream of chicken soup was used as a model food system. 600 g packs were purchased from the local supermarket. This was a ‘fresh home-made type’ of soup that was stored in the chill cabinet, with a short shelf life. It was chosen because it is a rich, nutritious food system containing a range of food components including meat, dairy and vegetable.
(§2) Ingredients were labelled as: chicken stock (water, duck fat, chicken, salt, flavourings, yeast extracts, pork gelatine, glucose syrup, vegetable concentrate, milk protein, sugar, malto-dextrin, vegetable oil, citric acid, lactose, chicken fat), ilk, chicken (9%), cream (8%), onion, potato, vegetable oil, modified maize starch, wheat flour, lemon juice, salt, white pepper. pH 5.912. Protein: 3.3%; carbohydrate: 4.7%; fat: 7.2%; fibre: 0.2%; sodium: 0.1%
(§3) For the test the soup was mixed 2:1 in water (to facilitate sampling and mixing) and sterilised by autoclaving at 121° C. for 15 minutes. For each experiment the pH of the soup was recorded; this was between pH 5.79-5.88.
(§4) For TCS010430/20 (incubated at 20° C.) samples were prepared in 18.8 g quantities, to which 1 g of a suitable filter-sterilised APP stock solution was added and an appropriately diluted 0.2 ml inoculum. Great care was again taken to ensure homogeneous distribution of the APP and micro-organisms. This test was sampled by viable count test on a daily basis.

Lb. sake A10 = assay: Test in cooked sausage meat slurry; type: cell-based, Lactobacillus sake; details: for Effect on growth: cooked sausage meat slurry at 8° C., pH 6.2, TSM010605
Excerpt: 500 g of bologna sausage meat mixture was mixed with 500 g Brain Heart Infusion broth (BHIB) to make a homogeneous slurry. The bologna sausage meat mix comprised (g per kg): lean beef 320; lean pork 202; lard 250; water 40; glucose 5; starch 155; spice mix 3.75; sodium glutamate 0.5; sodium erythorbate 0.545; sodium di-phosphate 3; NaCl 20; sodium nitrite 0.15. 200 g samples of the meat slurry were autoclaved. While the meat was still warm it was re-mixed thoroughly. When the meat had cooled it was inoculated with 2 ml of 10^5 cfu/ml spore or cell suspension, and re-mixed again. Each inoculated meat sample was divided into 3×50 g samples, and 1 ml of either SDW, 2.5% or 5% APP solution (batch number APP 20010215) was added to prepare meat samples containing 0, 500 and 1000 ppm APP. The meat slurry was again shaken thoroughly to ensure even mixing, an initial viable count was taken and the samples incubated at 8° C. Samples were taken at twice-weekly intervals. The pH of the sausage meat slurry was 6.2.

B. cereus 204 = assay: Chicken soup trial at 20° C.; type: cell-based, Bacillus cereus; details: chicken soup at 20° C., TCSM010430, APP20010213
Excerpt: as §1, §2, §3, §4

[1] = tested on: Br. thermosphacta CRA7883; assay: Bioscreen growth inhibition test; type: cell-based, Brochothrix thermosphacta; details: BS010420, 72 h at 25° C., APP20010213
Method: For broth cultures and Bioscreen testing most bacteria were grown in Brain Heart Infusion (BHI, Oxoid, pH 7.4). Lactobacillus sake A10 was grown in de Man, Rogosa, Sharpe medium ([…], Oxoid). Yeasts were grown in Sabouraud Liquid medium (SLM, Oxoid). Most bacteria were cultured at 30° C. Lactic acid bacteria were grown on solid medium in enriched CO2 atmosphere. Clostridium species were grown in Reinforced Clostridial Medium (RCM) at 37° C. anaerobically. Brochothrix thermosphacta fungi and yeasts were grown at 25° C. Fungi were cultured on Malt Extract Agar (MEA, Oxoid).
An automated Microbiology Reader Bioscreen C was used to measure growth curves of the strains in the presence and absence of APP. The Bioscreen C measures the development of turbidity (i.e. growth) kinetically by vertical photometry in 200 wells of a honeycomb microtitre plate, simultaneously. The system consists of a Bioscreen C analyser, which is an incubator and measurement unit, integrated with a PC, software (BioLink v 5.30), printer and a ‘Honeycomb 2’ cuvette multiwell plate. Growth curve data can be analysed within the BioLink software or exported to programs such as Excel.
Broth culture media were dispensed in 270 μl volumes into the wells as directed. […] (depending on the micro-organism under investigation) with readings taken every 20 minutes after the trays were shaken. […]

Stability in water = type: physicochemical; details: water at 24° C.
Method: Tests indicate that APP is stable in water at 24° C. for 2 weeks, but completely disappears after 2 months. […] At pH 11-12.5 APP has a half-life of 5 h. Since most food is acidic or neutral, the stability may therefore be improved by using APP in combination with an antioxidant such as those listed hereinbefore.

[2] = tested on: Hanseniaspora uvarum CBS5074; assay: Test in apple juice; type: cell-based; details: for Growth inhibition: apple juice (pH 3.42) at 25° C., TAJ010530
Method: (§5) 8.9 ml apple juice samples (pH 3.42) were prepared and autoclaved. Batch number APP20010215 (at 138 mg/ml) was used to prepare filter-sterilised stock solutions for 1 ml addition to the juice to achieve 0, 1000, 2000 ppm APP. Tests were inoculated with 100 μl of an appropriately diluted overnight SLM broth of yeast culture or ascospore suspension of Byssochlamys spores prepared earlier. The tests were incubated at 25° C., and examined daily for signs of growth (e.g. turbidity, mycelium development).

[3] = tested on: Rhodotorula mucilaginosa var mucilaginosa CBS8161; assay: Test in apple juice; type: cell-based; details: for Growth inhibition: apple juice (pH 3.42) at 25° C., TAJ010530
Method: as §5

Candida parapsilosis 458 = assay: Test in apple juice; type: cell-based; details: apple juice (pH 3.42) at 25° C., TAJ010530
Method: as §5

[4] = tested on: Byssochlamys fulva 040021; assay: Test in apple juice; type: cell-based; details: apple juice (pH 3.42) at 25° C., TAJ010530
Method: as §5

B. nivea 163642 = assay: Test in apple juice; type: cell-based; details: apple juice (pH 3.42) at 25° C., TAJ010530
Method: as §5

[5] = 2000 ppm, chicken soup at 20° C., TCSM010430, APP20010213

## O=C1CC(CO)OC=C1O (centres unmarked) [APP, Ascopyrone P]
Ps. fluorescens 3756; 1000 ppm, chicken soup at 20° C., TCSM010430, APP20010213
  Effect on growth: No significant effect with 1000 ppm
Ps. fluorescens 3756; [5]
  Counts: undetectable).
  Total inhibition for: Total inhibition by 2000 ppm for >42 days (counts
Ps. fluorescens 3756; Chicken soup at 20° C. pH 5.8
  Total inhibition (effect on growth of target organism by 2000 ppm APP): Ps. fluorescens
Lb. sake A10; 500 ppm
  Effect on growth: No effect with 500 and 1000 ppm
Lb. sake A10; 1000 ppm
  Effect on growth: No effect with 500 and 1000 ppm
Lb. sake A10; Cooked sausage meat slurry at 8° C. pH 6.2, (1000)
  No inhibition (effect on growth of target organism by APP): Lb. sake (1000)
B. cereus 204; 500 ppm
  Effect on growth: No significant effect with 500 ppm
B. cereus 204; 1000 ppm
  Effect on growth: Extension of lag with 1000 ppm
B. cereus 204; 2000 ppm
  Total inhibition for: Total inhibition by 2000 ppm for >42 days.
[1]
  APP level causing significant inhibition: 2000 ppm
  APP level causing total inhibition: 4000 ppm
Stability in water
  Completely disappears after: 2 months
  Stable in water for: 2 weeks
[2]; 1000 ppm
  Growth inhibition: No growth inhibition
[2]; 2000 ppm
  Growth inhibition: No growth inhibition
[2]; Apple juice at ambient pH 3.4
  No inhibition (effect on growth of target organism by 2000 ppm APP): H. uvarum
[3]; 1000 ppm
  Growth inhibition: No growth inhibition
[3]; 2000 ppm
  Growth inhibition: No growth inhibition
[3]; Apple juice at ambient pH 3.4
  No inhibition (effect on growth of target organism by 2000 ppm APP): Rh. mucilaginosa
Candida parapsilosis 458; 1000 ppm
  Growth inhibition: No growth inhibition
Candida parapsilosis 458; 2000 ppm
  Growth inhibition: No growth inhibition
[4]; 1000 ppm
  Growth inhibition: No growth inhibition
[4]; 2000 ppm
  Growth inhibition: No growth inhibition
B. nivea 163642; 1000 ppm
  Growth inhibition: No growth inhibition
B. nivea 163642; 2000 ppm
  Growth inhibition: No growth inhibition
